Like-named read-outs stand apart in the source and are kept apart here. Marks after values point to notes of the source that are not given here.
How the values were obtained:
Assay type in all cases: cell-based, Staphylococcus aureus
S. aureus MW2 = settings: strain MW2
Experimental: (§1) Antibiotic sensitivity tests were performed at the University Clinic of Navarra. Antibiotics routinely used in clinic for treatment of S. aureus infections were tested by VITEK 2 system. • Growth Kinetics Analysis

S. aureus 8325 = system: S. aureus 8325; as to Antimicrobial susceptibility (R/S): key: R: resistant; S: susceptible
Experimental: as §1

S. aureus MW2 ΔXV = assay: Antimicrobial susceptibility test (VITEK 2 system); settings: for Susceptibility of MW2 ΔXV mutant compared with parental strain: MW2 ΔXV vs MW2; for Antimicrobial susceptibility (R/S) / MIC, Minimal inhibitory concentration: strain MW2 ΔXV; as to Antimicrobial susceptibility (R/S): key: R: resistant; S: susceptible
Experimental: as §1

S. aureus 8325 ΔXV = assay: Antimicrobial susceptibility test (VITEK 2 system); settings: for Antimicrobial susceptibility (R/S) / MIC, Minimal inhibitory concentration: strain 8325 ΔXV; for Susceptibility of 8325 ΔXV mutant compared with parental strain: 8325 ΔXV vs 8325; as to Antimicrobial susceptibility (R/S): key: R: resistant; S: susceptible
Experimental: as §1
For Antimicrobial susceptibility (R/S) in this document: key: R: resistant; S: susceptible.

CC(=O)NC[C@H]1CN(c2ccc(N3CCOCC3)c(F)c2)C(=O)O1 [Linezolid]
Antimicrobial susceptibility (R/S) (S. aureus MW2): S | MIC, Minimal inhibitory concentration (S. aureus MW2): (2)^a | Antimicrobial susceptibility (R/S) (S. aureus 8325; strain 8325): S | Susceptibility of MW2 ΔXV mutant compared with parental strain (S. aureus MW2 ΔXV): more susceptible | Antimicrobial susceptibility (R/S) (S. aureus MW2 ΔXV): S | MIC, Minimal inhibitory concentration (S. aureus MW2 ΔXV): (1)^a | Antimicrobial susceptibility (R/S) (S. aureus 8325 ΔXV): S

Cc1onc(-c2ccccc2Cl)c1C(=O)N[C@@H]1C(=O)N2[C@@H]1SC(C)(C)[C@@H]2C(=O)O [Cloxacillin]
Antimicrobial susceptibility (R/S) (S. aureus MW2): R | Antimicrobial susceptibility (R/S) (S. aureus 8325; strain 8325): S | Antimicrobial susceptibility (R/S) (S. aureus MW2 ΔXV): R | Antimicrobial susceptibility (R/S) (S. aureus 8325 ΔXV): S

Trimethoprim/Sulfamethoxazole
Antimicrobial susceptibility (R/S) (S. aureus MW2): S | Antimicrobial susceptibility (R/S) (S. aureus 8325; strain 8325): S | Antimicrobial susceptibility (R/S) (S. aureus MW2 ΔXV): S | Antimicrobial susceptibility (R/S) (S. aureus 8325 ΔXV): S

CC[C@H]1OC(=O)[C@H](C)[C@@H](O[C@H]2C[C@@](C)(OC)[C@@H](O)[C@H](C)O2)[C@H](C)[C@@H](O[C@@H]2O[C@H](C)C[C@H](N(C)C)[C@H]2O)[C@](C)(O)C[C@@H](C)CN(C)[C@H](C)[C@@H](O)[C@]1(C)O [Azithromycin]
Antimicrobial susceptibility (R/S) (S. aureus MW2): S | Antimicrobial susceptibility (R/S) (S. aureus 8325; strain 8325): S | Antimicrobial susceptibility (R/S) (S. aureus MW2 ΔXV): S | Antimicrobial susceptibility (R/S) (S. aureus 8325 ΔXV): S

Gentamicin
Antimicrobial susceptibility (R/S) (S. aureus MW2): S | Antimicrobial susceptibility (R/S) (S. aureus 8325; strain 8325): S | Antimicrobial susceptibility (R/S) (S. aureus MW2 ΔXV): S | Antimicrobial susceptibility (R/S) (S. aureus 8325 ΔXV): S

O=C1CN(/N=C/c2ccc([N+](=O)[O-])o2)C(=O)N1 [Nitrofurantoin]
Antimicrobial susceptibility (R/S) (S. aureus MW2): S | MIC, Minimal inhibitory concentration (S. aureus MW2): (32)^a | Antimicrobial susceptibility (R/S) (S. aureus 8325): S | Antimicrobial susceptibility (R/S) (S. aureus MW2 ΔXV): S | MIC, Minimal inhibitory concentration (S. aureus MW2 ΔXV): (≤16)^a | Antimicrobial susceptibility (R/S) (S. aureus 8325 ΔXV): S

Cc1onc(-c2ccccc2)c1C(=O)N[C@@H]1C(=O)N2[C@@H]1SC(C)(C)[C@@H]2C(=O)O [Oxacillin]
Antimicrobial susceptibility (R/S) (S. aureus MW2): R | MIC, Minimal inhibitory concentration (S. aureus MW2): (≥4)^a | Antimicrobial susceptibility (R/S) (S. aureus 8325; strain 8325): S | Susceptibility of MW2 ΔXV mutant compared with parental strain (S. aureus MW2 ΔXV): more susceptible | Antimicrobial susceptibility (R/S) (S. aureus MW2 ΔXV): R | MIC, Minimal inhibitory concentration (S. aureus MW2 ΔXV): (2)^a | Antimicrobial susceptibility (R/S) (S. aureus 8325 ΔXV): S

CC[C@H]1OC(=O)[C@H](C)[C@@H](O[C@H]2C[C@@](C)(OC)[C@@H](O)[C@H](C)O2)[C@H](C)[C@@H](O[C@@H]2O[C@H](C)C[C@H](N(C)C)[C@H]2O)[C@](C)(O)C[C@@H](C)C(=O)[C@H](C)[C@@H](O)[C@]1(C)O [Erithromycin]
Antimicrobial susceptibility (R/S) (S. aureus MW2): S | Antimicrobial susceptibility (R/S) (S. aureus 8325; strain 8325): S | Antimicrobial susceptibility (R/S) (S. aureus MW2 ΔXV): S | Antimicrobial susceptibility (R/S) (S. aureus 8325 ΔXV): S

CO[C@@]1(NC(=O)Cc2cccs2)C(=O)N2C(C(=O)O)=C(COC(N)=O)CS[C@@H]21 [Cefoxitin]
Antimicrobial susceptibility (R/S) (S. aureus MW2): R | Antimicrobial susceptibility (R/S) (S. aureus 8325; strain 8325): S | Susceptibility of MW2 ΔXV mutant compared with parental strain (S. aureus MW2 ΔXV): more susceptible | Antimicrobial susceptibility (R/S) (S. aureus MW2 ΔXV): S | Antimicrobial susceptibility (R/S) (S. aureus 8325 ΔXV): S

NC[C@H]1O[C@H](O[C@H]2[C@H](O)[C@@H](O[C@H]3O[C@H](CO)[C@@H](O)[C@H](N)[C@H]3O)[C@H](N)C[C@@H]2N)[C@H](N)C[C@@H]1O [Tobramycin]
Antimicrobial susceptibility (R/S) (S. aureus MW2): S | Antimicrobial susceptibility (R/S) (S. aureus 8325; strain 8325): S | Antimicrobial susceptibility (R/S) (S. aureus MW2 ΔXV): S | Antimicrobial susceptibility (R/S) (S. aureus 8325 ΔXV): S

CN(C)c1cc(NC(=O)CNC(C)(C)C)c(O)c2c1C[C@H]1C[C@H]3[C@H](N(C)C)C(O)=C(C(N)=O)C(=O)[C@@]3(O)C(O)=C1C2=O [Tigecycline]
Antimicrobial susceptibility (R/S) (S. aureus MW2): S | Antimicrobial susceptibility (R/S) (S. aureus 8325; strain 8325): S | Antimicrobial susceptibility (R/S) (S. aureus MW2 ΔXV): S | Antimicrobial susceptibility (R/S) (S. aureus 8325 ΔXV): S

C[C@@H]1O[C@@H]1P(=O)(O)O [Fosfomycin]
Antimicrobial susceptibility (R/S) (S. aureus MW2): S | Antimicrobial susceptibility (R/S) (S. aureus 8325; strain 8325): S | MIC, Minimal inhibitory concentration (S. aureus 8325; strain 8325): (16)^a | Antimicrobial susceptibility (R/S) (S. aureus MW2 ΔXV): S | Susceptibility of 8325 ΔXV mutant compared with parental strain (S. aureus 8325 ΔXV): higher susceptibility | Antimicrobial susceptibility (R/S) (S. aureus 8325 ΔXV): S | MIC, Minimal inhibitory concentration (S. aureus 8325 ΔXV): (≤8)^a

Teicoplanin
Antimicrobial susceptibility (R/S) (S. aureus MW2): S | Antimicrobial susceptibility (R/S) (S. aureus 8325; strain 8325): S | Antimicrobial susceptibility (R/S) (S. aureus MW2 ΔXV): S | Antimicrobial susceptibility (R/S) (S. aureus 8325 ΔXV): S

CC1(C)S[C@@H]2[C@H](NC(=O)Cc3ccccc3)C(=O)N2[C@H]1C(=O)O [Bencilpenicillin]
Antimicrobial susceptibility (R/S) (S. aureus MW2): R | Antimicrobial susceptibility (R/S) (S. aureus 8325; strain 8325): R | MIC, Minimal inhibitory concentration (S. aureus 8325; strain 8325): (0.25) | Antimicrobial susceptibility (R/S) (S. aureus MW2 ΔXV): R | Susceptibility of 8325 ΔXV mutant compared with parental strain (S. aureus 8325 ΔXV): higher susceptibility | Antimicrobial susceptibility (R/S) (S. aureus 8325 ΔXV): S | MIC, Minimal inhibitory concentration (S. aureus 8325 ΔXV): (0.12)

CCC[C@@H]1C[C@@H](C(=O)N[C@@H]([C@H]2O[C@H](SC)[C@H](O)[C@@H](O)[C@H]2O)[C@H](C)Cl)N(C)C1 [Clindamycin]
Antimicrobial susceptibility (R/S) (S. aureus MW2): S | Antimicrobial susceptibility (R/S) (S. aureus 8325; strain 8325): S | Antimicrobial susceptibility (R/S) (S. aureus MW2 ΔXV): S | Antimicrobial susceptibility (R/S) (S. aureus 8325 ΔXV): S

C/C(=C\C(=O)OCCCCCCCCC(=O)O)C[C@@H]1OC[C@H](C[C@@H]2O[C@H]2[C@@H](C)[C@H](C)O)[C@@H](O)[C@H]1O [Mupirocin]
Antimicrobial susceptibility (R/S) (S. aureus MW2): S | Antimicrobial susceptibility (R/S) (S. aureus 8325; strain 8325): S | Antimicrobial susceptibility (R/S) (S. aureus MW2 ΔXV): S | Antimicrobial susceptibility (R/S) (S. aureus 8325 ΔXV): S

CN[C@H](CC(C)C)C(=O)N[C@H]1C(=O)N[C@@H](CC(N)=O)C(=O)N[C@H]2C(=O)N[C@H]3C(=O)N[C@H](C(=O)N[C@H](C(=O)O)c4cc(O)cc(O)c4-c4cc3ccc4O)[C@H](O)c3ccc(c(Cl)c3)Oc3cc2cc(c3O[C@@H]2O[C@H](CO)[C@@H](O)[C@H](O)[C@H]2O[C@H]2C[C@](C)(N)[C@H](O)[C@H](C)O2)Oc2ccc(cc2Cl)[C@H]1O [Vancomycin]
Antimicrobial susceptibility (R/S) (S. aureus MW2): S | Antimicrobial susceptibility (R/S) (S. aureus 8325; strain 8325): S | MIC, Minimal inhibitory concentration (S. aureus 8325; strain 8325): (1)^a | Antimicrobial susceptibility (R/S) (S. aureus MW2 ΔXV): S | Susceptibility of 8325 ΔXV mutant compared with parental strain (S. aureus 8325 ΔXV): higher susceptibility | Antimicrobial susceptibility (R/S) (S. aureus 8325 ΔXV): S | MIC, Minimal inhibitory concentration (S. aureus 8325 ΔXV): (≤0.5)^a

CO[C@H]1/C=C/O[C@@]2(C)Oc3c(C)c(O)c4c(O)c(c(/C=N/N5CCN(C)CC5)c(O)c4c3C2=O)NC(=O)/C(C)=C\C=C\[C@H](C)[C@H](O)[C@@H](C)[C@@H](O)[C@@H](C)[C@H](OC(C)=O)[C@@H]1C [Rifampicin]
Antimicrobial susceptibility (R/S) (S. aureus MW2): S | Antimicrobial susceptibility (R/S) (S. aureus 8325; strain 8325): S | Antimicrobial susceptibility (R/S) (S. aureus MW2 ΔXV): S | Antimicrobial susceptibility (R/S) (S. aureus 8325 ΔXV): S

CC(=O)O[C@H]1C[C@@]2(C)[C@@H](C[C@@H](O)[C@H]3[C@@]4(C)CC[C@@H](O)[C@@H](C)[C@@H]4CC[C@@]32C)/C1=C(\CCC=C(C)C)C(=O)O [Fusidic acid]
Antimicrobial susceptibility (R/S) (S. aureus MW2): S | Antimicrobial susceptibility (R/S) (S. aureus 8325; strain 8325): S | Antimicrobial susceptibility (R/S) (S. aureus MW2 ΔXV): S | Antimicrobial susceptibility (R/S) (S. aureus 8325 ΔXV): S

CO/N=C(\C(=O)N[C@@H]1C(=O)N2C(C(=O)O)=C(COC(N)=O)CS[C@H]12)c1ccco1 [Cefuroxime]
Antimicrobial susceptibility (R/S) (S. aureus MW2): R | Antimicrobial susceptibility (R/S) (S. aureus 8325; strain 8325): S | Antimicrobial susceptibility (R/S) (S. aureus MW2 ΔXV): R | Antimicrobial susceptibility (R/S) (S. aureus 8325 ΔXV): S

CC(=O)OCC1=C(C(=O)O)N2C(=O)[C@@H](NC(=O)Cc3cccs3)[C@H]2SC1 [Cefalotin]
Antimicrobial susceptibility (R/S) (S. aureus MW2): R | Antimicrobial susceptibility (R/S) (S. aureus 8325; strain 8325): S | Antimicrobial susceptibility (R/S) (S. aureus MW2 ΔXV): R | Antimicrobial susceptibility (R/S) (S. aureus 8325 ΔXV): S

— patent US20190233906A1, “MUTANT STRAINS OF STAPHYLOCOCCUS AUREUS WITH MULTIPLE INACTIVATED TCS SYSTEMS” (priority 2015, published 2019)
